From patent US6277876A, “Matrix metalloproteinase inhibitors” (Leo Pharmaceutical Products Ltd. A/S, priority 1998, dated 2001) come the findings set out here.

The target in one assay is T1, MMP-9 (Homo sapiens, UniProt P14780).
T1 construct: matrix metalloproteinases were obtained from culture media conditioned by MCF-7 human breast cancer cells; endogenous in cells; host or cells: MCF-7 human breast cancer cells (conditioned culture medium)
In words: In vitro inhibition of MMPs by gelatine zymography (MMP-9). It counts as biochemical. The conditions noted are these: concentration that inhibited approximately half of the maximal enzymatic activity; MMPs from MCF-7 conditioned media in gelatine SDS gels, incubated overnight at 37° C., pH 7.5; read-out: In vitro inhibition of matrix metalloproteinases (nM) MMP-9. As to the method: (§1) The compounds were tested in vitro using the following procedure: matrix metalloproteinases were obtained from culture media conditioned by MCF-7 human breast cancer cells and separated by electrophoresis on SDS-acrylamide gels (7.0%) copolymerised with gelatine (1 mg/ml, Sigma, Mo., USA). The gels containing the MMPs were then incubated with the test compounds overnight in 10 ml buffer (50 mM tris-HCl, pH 7.5, 200 mM NaCl, 5 mM CaCl2, 1 μM ZnCl2, 0.002% NaN3) at 37° C. The gels were stained for 60 min with 0.5% Coomassie brilliant blue R-250 in 10% acetic acid, destained with 10% acetic acid, incubated with 5% glycerol, and dried with a gel drier. The molar concentrations that inhibited approximately half of the maximal enzymatic activity were then determined.

The test system of another assay is MMP-2/3. In words: In vitro inhibition of MMPs by gelatine zymography (MMP-2/3). Format: biochemical, human. The following applies: concentration that inhibited approximately half of the maximal enzymatic activity; MMPs from MCF-7 conditioned media in gelatine SDS gels, incubated overnight at 37° C., pH 7.5; read-out: In vitro inhibition of matrix metalloproteinases (nM) MMP-2/3. As to the method:
as §1

T1 sequence (P14780 94-707): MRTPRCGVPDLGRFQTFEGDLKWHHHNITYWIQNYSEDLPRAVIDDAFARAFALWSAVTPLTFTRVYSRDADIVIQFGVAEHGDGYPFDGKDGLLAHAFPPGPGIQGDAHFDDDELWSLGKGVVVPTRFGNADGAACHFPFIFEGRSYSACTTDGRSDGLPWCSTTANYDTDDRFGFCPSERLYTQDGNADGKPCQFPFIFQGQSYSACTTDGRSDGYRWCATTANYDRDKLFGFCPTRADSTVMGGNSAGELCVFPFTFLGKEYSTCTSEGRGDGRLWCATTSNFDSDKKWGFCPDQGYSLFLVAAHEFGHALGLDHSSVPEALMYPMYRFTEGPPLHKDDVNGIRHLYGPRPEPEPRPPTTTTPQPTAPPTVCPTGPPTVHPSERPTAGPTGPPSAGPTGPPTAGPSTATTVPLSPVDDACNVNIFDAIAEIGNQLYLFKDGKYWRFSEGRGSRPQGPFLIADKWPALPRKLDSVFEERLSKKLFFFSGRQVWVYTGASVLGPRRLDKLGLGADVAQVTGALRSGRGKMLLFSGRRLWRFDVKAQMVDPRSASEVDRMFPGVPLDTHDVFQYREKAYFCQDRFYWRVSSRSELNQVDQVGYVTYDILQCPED

As to `CNC(=O)[C@H](Cc1ccccc1)NC(=O)[C@@H](CC(=O)NO)CC(C)C` [Comparator 1, N^1 -Hydroxy-3R-isobutyl-N^4-[1S-(methylcarbamoyl)-2-phenylethyl]-succinamide, reference compound], the IC50 on MMP-9 was determined as 10 nM.
Turning to `CNC(=S)[C@H](Cc1ccccc1)NC(=O)[C@@H](CC(=O)NO)CC(C)C` [Example 3, N^4 -Hydroxy-2(R)-isobutyl-N^1-[1(S)-(methylthiocarbamoyl)-2-phenylethyl]-succinamide], the IC50 at MMP-9 and with MMP-2/3 was 1 nM each time.
Consider `CNC(=S)[C@H](Cc1ccccc1)NC(=O)[C@H](CCCc1ccccc1)CC(=O)NO` [Example 4, N^4 -Hydroxy-N^1-[1(S)-(methylthiocarbamoyl)-2-Rhenylethyl]-2(R)-phenylpropyl-succinamide], for which the IC50 at MMP-9 and in the assay on MMP-2/3 was 1 nM in each case.
`O=C(C[C@@H](CCCc1ccccc1)C(=O)N[C@@H](Cc1ccccc1)C(=S)NCCCc1ccccc1)NO` [Example 5]: the IC50 on MMP-9 and with MMP-2/3 was 1 nM throughout.
